Data on 15 compounds can be found in patent publication US5064953A, “Intermediates cephalosporin derivatives” (Mochida Pharmaceutical Co., Ltd., priority 1983, dated 1991).

The structures appear in SMILES notation. Values after ≈ are worked out from the molar mass of the structure shown.

What is called MIC is the lowest concentration found to suppress growth. A high value points to a less susceptible organism.

What all share (experiment): Antibacterial activity in vitro, agar plate dilution method (MIC)
What all share (assay type): cell-based

The test system of one assay is Escherichia coli 67. The settings on record: 10^6 cells/ml, Mueller Hinton agar, 37° C., 20 hours. As for the experimental part:
(§1) Antibacterial activity in vitro was determined in accordance with the agar plate dilution method. A platinum loop each of test bacteria (10^6 cells/ml), cultured in Mueller Hinton broth, was inoculated on Mueller Hinton agar plates which contained test compounds at various concentrations. After cultivating at 37° C. for 20 hours, the minimum inhibitory concentration (MIC μg/ml) was determined.

Assay [1] relates to Klebsiella pneumoniae IF03317. To be noted: 10^6 cells/ml, Mueller Hinton agar, 37° C., 20 hours. As for the experimental part:
as §1

The test system of the next assay is Proteus morganii IF03848. The settings on record: Morganella morganii, 10^6 cells/ml, Mueller Hinton agar, 37° C., 20 hours. As for the experimental part:
as §1

Assay [2] deals with Pseudomonas aeruginosa IF03445. To be noted: 10^6 cells/ml, Mueller Hinton agar, 37° C., 20 hours. As for the experimental part:
as §1

Assay [3] relates to Serratia marcescens IF03759. The settings on record: 10^6 cells/ml, Mueller Hinton agar, 37° C., 20 hours. The protocol:
as §1

For assay [4], the system named is Staphylococcus aureus Smith. The settings on record: 10^6 cells/ml, Mueller Hinton agar, 37° C., 20 hours. As for the experimental part:
as §1

For `Cc1cc(SCC2=C(C(=O)O)N3C(=O)[C@@H](NC(=O)/C(=N\OC(=O)c4ccc5c(c4)OCO5)c4csc(N)n4)[C@H]3SC2)n2nc(C(=O)O)nc2n1` [Compound 12], the MIC turned out to be 0.39 µg/mL (≈ 0.527 µM) against Escherichia coli 67; 0.39 µg/mL (≈ 0.527 µM) in assay [1]; 0.78 µg/mL (≈ 1.05 µM) with Proteus morganii IF03848; 25 µg/mL (≈ 33.8 µM) in assay [2]; 0.39 µg/mL (≈ 0.527 µM) in assay [3]; 0.78 µg/mL (≈ 1.05 µM) in assay [4].

Consider `CO/N=C(\C(=O)N[C@@H]1C(=O)N2C(C(=O)O)=C(CSc3nc4ncc(C(=O)O)c(O)n4n3)CS[C@H]12)c1csc(N)n1` [Compound 19, (6R,7R)-7-[2-(2-amino-4-thiazolyl)-2-(Z-methoxyimino)acetamido]-3-[(6-carboxy-7-hydroxy-s-triazolo[1,5-a]pyrimidin-2-yl)thiomethyl]-8-oxo-5-thia-1-azabicyclo[4.2.0]oct-2-ene-2-carboxylic acid], for which the MIC with Escherichia coli 67 is less than 0.05 µg/mL; in assay [1], less than 0.05 µg/mL; against Proteus morganii IF03848, 0.2 µg/mL (≈ 0.329 µM); in assay [2], 6.25 µg/mL (≈ 10.3 µM); in assay [3], less than 0.05 µg/mL; in assay [4], 6.25 µg/mL (≈ 10.3 µM).

In the case of `CO/N=C(\C(=O)N[C@@H]1C(=O)N2C(C(=O)O)=C(CSc3c(C(=O)O)cnc4ncnn34)CS[C@H]12)c1csc(N)n1` [Compound 3, (6R,7R)-7-[2-(2-amino-4-thiazolyl)-2-(Z-methoxyimino)acetamido]-3-[(6-carboxy-s-triazolo[1,5-a]pyrimidin-7-yl)-thiomethyl]-8-oxo-5-thia-1-azabicyclo [4.2.0]oct-2-ene-2-carboxylic acid], the MIC was 0.39 µg/mL (≈ 0.659 µM) in the assay with Escherichia coli 67; less than 0.05 µg/mL in assay [1]; 1.57 µg/mL (≈ 2.65 µM) with Proteus morganii IF03848; more than 100 µg/mL in assay [2]; 0.78 µg/mL (≈ 1.32 µM) in assay [3]; 12.5 µg/mL (≈ 21.1 µM) in assay [4].

Regarding `CO/N=C(\C(=O)N[C@@H]1C(=O)N2C(C(=O)O)=C(CSc3cc(C(=O)O)nc4nnc(C)n34)CS[C@H]12)c1csc(N)n1` [Compound 20, (6R,7R)-7-[2-(2-amino-4-thiazolyl)-2-(Z-methoxyimino)acetamido]-3-[(7-carboxy-3-methyl-s-triazolo[4,3-a]pyrimidin-5-yl)thiomethyl]-8-oxo-5-thia-1-azabicyclo[4.2.0]oct-2-ene-2-carboxylic acid], the MIC with Escherichia coli 67 was 0.2 µg/mL (≈ 0.33 µM); in assay [1] it was less than 0.05 µg/mL; in the assay on Proteus morganii IF03848, 0.78 µg/mL (≈ 1.29 µM); in assay [2], 12.5 µg/mL (≈ 20.6 µM); in assay [3], 0.2 µg/mL (≈ 0.33 µM); in assay [4], 3.13 µg/mL (≈ 5.17 µM).

For `CO/N=C(\C(=O)N[C@@H]1C(=O)N2C(C(=O)O)=C(CSc3cc(C)nc4nc(S(=O)(=O)O)nn34)CS[C@H]12)c1csc(N)n1` [Compound 18, (6R,7R)-7-[2-(2-amino-4-thiazolyl)-2-(Z-methoxyimino)acetamido]-3-[(2 hydroxysulfonyl-5-methyl-s-triazolo[1,5-a]pyrimidin-7-yl)thiomethyl]-8-oxo-5-thia-1-azabicyclo[4.2.0]oct 2-ene-2-carboxylic acid], the MIC is less than 0.05 µg/mL against Escherichia coli 67; less than 0.05 µg/mL in assay [1]; 0.78 µg/mL (≈ 1.22 µM) in the assay on Proteus morganii IF03848; 100 µg/mL (≈ 156 µM) in assay [2]; 0.2 µg/mL (≈ 0.312 µM) in assay [3]; 0.39 µg/mL (≈ 0.608 µM) in assay [4].

Take `CO/N=C(\C(=O)N[C@@H]1C(=O)N2C(C(=O)O)=C(CSc3cc(CC(=O)O)nc4ncnn34)CS[C@H]12)c1csc(N)n1` [Compound 5, (6R,7R)-7-[2-(2-amino-4-thiazolyl)-2-(Z-methoxyimino)acetamido]-3-[(5-carboxymethyl-s-triazolo[1,5-a]pyrimidin-7-yl)thiomethyl]-8-oxo-5-thia-1-azabicyclo[4.2.0]oct-2-ene-2-carboxylic acid]: the MIC was 0.1 µg/mL (≈ 0.165 µM) against Escherichia coli 67; less than 0.05 µg/mL in assay [1]; 0.78 µg/mL (≈ 1.29 µM) in the assay on Proteus morganii IF03848; more than 100 µg/mL in assay [2]; 0.2 µg/mL (≈ 0.33 µM) in assay [3]; 3.13 µg/mL (≈ 5.17 µM) in assay [4].

Turning to `CC(=O)Oc1cc(C(=O)O/N=C(\C(=O)N[C@@H]2C(=O)N3C(C(=O)O)=C(CSc4cc(C)nc5nc(C(=O)O)nn45)CS[C@H]23)c2csc(N)n2)cc(OC(C)=O)c1OC(C)=O` [Compound 13], the MIC in the assay on Escherichia coli 67 was 0.05 µg/mL (≈ 0.0575 µM); in assay [1], less than 0.05 µg/mL; against Proteus morganii IF03848, 0.2 µg/mL (≈ 0.23 µM); in assay [2] it was 1.57 µg/mL (≈ 1.8 µM); in assay [3], less than 0.05 µg/mL; in assay [4] it was 0.78 µg/mL (≈ 0.897 µM).

On to `CO/N=C(\C(=O)N[C@@H]1C(=O)N2C(C(=O)O)=C(CSc3cc(C)nc4nc(N)nn34)CS[C@H]12)c1csc(N)n1` [Compound 17, (6R,7R)-7-[2-(2-amino-4-thiazolyl)-2-(Z-methoxyimino)acetamido]-3-[(2-amino-5-methyl-s-triazolo[1,5-a]pyrimidin-7-yl)thiomethyl]-8-oxo-5-thia-1-azabicyclo[4.2.0]oct-2-ene-2-carboxylic acid], for which the MIC in the assay on Escherichia coli 67 was 0.1 µg/mL (≈ 0.173 µM); in assay [1], less than 0.05 µg/mL; in the assay with Proteus morganii IF03848, 0.39 µg/mL (≈ 0.676 µM); in assay [2], 50 µg/mL (≈ 86.7 µM); in assay [3], 0.2 µg/mL (≈ 0.347 µM); in assay [4], 1.57 µg/mL (≈ 2.72 µM).

Regarding `CO/N=C(\C(=O)N[C@@H]1C(=O)N2C(C(=O)O)=C(CSc3cc(C)nc4nc(CC(=O)O)nn34)CS[C@H]12)c1csc(N)n1` [Compound 4, (6R,7R)-7-[2-(2-amino-4-thiazolyl)-2-(Z-methoxyimino)acetamido]-3-[(2-carboxymethyl-5-methyl-s-triazolo[1,5-a]pyrimidin-7-yl)thiomethyl]-8-oxo-5-thia-1-azabicyclo[4.2.0]oct-2-ene-2-carboxylic acid], the MIC against Escherichia coli 67 is 0.2 µg/mL (≈ 0.323 µM); in assay [1], less than 0.05 µg/mL; in the assay on Proteus morganii IF03848 it was 0.78 µg/mL (≈ 1.26 µM); in assay [2], 25 µg/mL (≈ 40.3 µM); in assay [3] it was 0.1 µg/mL (≈ 0.161 µM); in assay [4], 3.13 µg/mL (≈ 5.05 µM).

Consider `CO/N=C(\C(=O)N[C@@H]1C(=O)N2C(C(=O)O)=C(CSc3nnc4cc(C)nc(O)n34)CS[C@H]12)c1csc(N)n1` [Compound 23, (6R,7R)-7-[2-(2-amino-4-thiazolyl)-2-(Z-methoxyimino)acetamido]-3 [(5-hydroxy-7-methyl-s-triazolo[4,3-c]pyrimidin-3-yl)thiomethyl]-8-oxo-5-thia-1-azabicyclo[4.2.0]oct-2-ene-2-carboxylic acid], for which the MIC against Escherichia coli 67 was 0.1 µg/mL (≈ 0.173 µM); in assay [1] it was less than 0.05 µg/mL; against Proteus morganii IF03848 it was 0.78 µg/mL (≈ 1.35 µM); in assay [2], 50 µg/mL (≈ 86.6 µM); in assay [3] it was 0.39 µg/mL (≈ 0.675 µM); in assay [4] it was 3.13 µg/mL (≈ 5.42 µM).

As for `Cc1cc(SCC2=C(C(=O)O)N3C(=O)[C@@H](NC(=O)/C(=N\OC(=O)c4ccccc4)c4csc(N)n4)[C@H]3SC2)n2nc(C(=O)O)nc2n1` [Compound 25, (6R,7R)-7-[2-(2-amino-4-thiazolyl)-2-(Z-benzoyloxyimino)acetamido]-3 [(2-carboxy-5-methyl-s-triazolo[1,5-a]pyrimidin-7-yl)thiomethyl]8-oxo-5-thia-1-azabicyclo[4.2.0]oct-2-ene 2-carboxylic acid], the MIC is 0.1 µg/mL (≈ 0.144 µM) in the assay on Escherichia coli 67; less than 0.05 µg/mL in assay [1]; 0.39 µg/mL (≈ 0.561 µM) against Proteus morganii IF03848; 50 µg/mL (≈ 71.9 µM) in assay [2]; 0.1 µg/mL (≈ 0.144 µM) in assay [3]; 0.39 µg/mL (≈ 0.561 µM) in assay [4].

Turning to `CO/N=C(\C(=O)N[C@@H]1C(=O)N2C(C(=O)O)=C(CSc3ccnc4nc(C(=O)O)nn34)CS[C@H]12)c1csc(N)n1` [Compound 14, (6R,7R)-7-[2-(2-amino-4-thiazolyl)-2-(Z-methoxyimino)acetamido]-3-[(2-carboxy-s-triazolo[1,5-a]pyrimidin-7-yl)thiomethyl]-8-oxo-5-thia-1-azabicyclo[4.2.0]oct-2-ene-2-carboxylic acid], the minimum inhibitory concentration (MIC) was 0.1 µg/mL (≈ 0.169 µM) in the assay on Escherichia coli 67; less than 0.05 µg/mL in assay [1]; 0.2 µg/mL (≈ 0.338 µM) against Proteus morganii IF03848; 50 µg/mL (≈ 84.5 µM) in assay [2]; less than 0.05 µg/mL in assay [3]; 3.13 µg/mL (≈ 5.29 µM) in assay [4].

On to `CO/N=C(\C(=O)N[C@@H]1C(=O)N2C(C(=O)O)=C(CSc3c(C(=O)O)cnc4nc(C(=O)O)nn34)CS[C@H]12)c1csc(N)n1` [Compound 7, (6R,7R)-7-[2-(2-amino-4-thiazolyl)-2-(Z-methoxyimino)acetamido]-3-[(2,6-dicarboxy-s-triazolo[1,5-a]pyrimidin-7-yl)thiomethyl]-8-oxo-5-thia-1-azabicyclo[4.2.0]oct-2-ene-2-carboxylic acid], for which the minimal inhibitory concentration (MIC) against Escherichia coli 67 is less than 0.05 µg/mL; in assay [1], less than 0.05 µg/mL; against Proteus morganii IF03848, 0.39 µg/mL (≈ 0.614 µM); in assay [2], more than 100 µg/mL; in assay [3], 0.39 µg/mL (≈ 0.614 µM); in assay [4] it was 12.5 µg/mL (≈ 19.7 µM).

With `CO/N=C(\C(=O)N[C@@H]1C(=O)N2C(C(=O)O)=C(CSc3cc(O)nc4nc(C(=O)O)nn34)CS[C@H]12)c1csc(N)n1` [Compound 15], the minimal inhibitory concentration (MIC) in the assay with Escherichia coli 67 was 0.39 µg/mL (≈ 0.642 µM); in assay [1] it was less than 0.05 µg/mL; in the assay with Proteus morganii IF03848, 0.78 µg/mL (≈ 1.28 µM); in assay [2], 12.5 µg/mL (≈ 20.6 µM); in assay [3], 0.1 µg/mL (≈ 0.165 µM); in assay [4], 12.5 µg/mL (≈ 20.6 µM).

Take `Cc1cc(SCC2=C(C(=O)O)N3C(=O)[C@@H](NC(=O)/C(=N\OC(=O)c4cccnc4)c4csc(N)n4)[C@H]3SC2)n2nc(C(=O)O)nc2n1` [Compound 11, (6R,7R)-7-[2-(2-amino-4-thiazolyl)-2-[Z-(3-pyridinecarbonyl)oxyimino]acetamido]-3-[(2-carboxy-5-methyl-s-trizolo[1,5-a]pyrimidin-7-yl)thiomethyl]-8-oxo-5-thia-1-azabicyclo[4.2.0]oct-2-ene-2-carboxylic acid]: the MIC in the assay with Escherichia coli 67 was less than 0.05 µg/mL; in assay [1], less than 0.05 µg/mL; against Proteus morganii IF03848 it was 0.1 µg/mL (≈ 0.144 µM); in assay [2] it was more than 100 µg/mL; in assay [3], less than 0.05 µg/mL; in assay [4], 0.39 µg/mL (≈ 0.56 µM).
